# Data from US12178846B2, “Methods of using gap junctions as therapeutic targets for the treatment of degenerative disorders of the retina” (The Research Foundation for The State University of New York, priority 2014, dated 2024).
# System: cells in the GCL of mouse retinas
# Test: NMDA-induced excitotoxic cell death in the GCL of retina-eyecups
# Assay type: cell-based
# Protocol: All animal procedures were in compliance with the NIH Guide for the Care and Use of Laboratory Animals and approved by the Institutional Animal Care and Use Committees at SUNY College of Optometry. Experiments were performed on retinas of wild type (WT), connexin knockout (KO) mice (Cx36^−/−, Cx45^−/−, and Cx36^−/−/45^−/− dKO), and their heterozygous (Het) littermates. The methods used to impale and label neurons have been described previously (Hu et al., J Neurosci 23:[…] (2003); Völgyi et al., Journal of Comparative Neurology 512:664-687 (2009)). Briefly, flattened retina-eyecups were placed in a superfusion chamber, which was mounted on the stage of a BX51WI light microscope (Olympus) within a light-tight Faraday cage. […] The retina-eyecups were superfused with a modified, oxygenated Ames medium maintained at 35° C.
# Various methods were employed to produce cell death. (1) Single cell apoptosis: CytC was injected into individual RGCs or Müller cells for 15 minutes after which retinas were incubated for 4 hours in oxygenated Ames medium before fixation. After streptavidin histology, apoptotic cells were detected with an anti-active caspase 3 antibody or with Terminal deoxynucleotidyl transferase dUTP nick end labeling (TUNEL) staining. (2) Excitotoxicity: To assess the contribution of GJs to cell death within populations of RGCs and amacrine cells we conducted parallel experiments in which retinas were preincubated for 20 minutes in normal Ames medium or in one containing the GJ blockers meclofenamic acid (MFA; 50 μM) or 18-beta-glycyrrhetinic acid (18Beta-GA; 25 μM). Both control and drug-treated retinas were then exposed for 1 hour to NMDA (100-300 μM) to induce excitotoxicity followed by 4 hours in the control Ames solution. (3) Retinal ischemia: Transient in vivo retinal ischemia was induced by introducing into the anterior chamber a 33-gauge needle attached to a saline-filled reservoir (0.9% sodium chloride) that was raised above the animal so as to increase intraocular pressure (IOP) to a level […]. MFA (2 μl, 500 μM) was administered intravitreally either 30 minutes before or 3 and 24 hours following the ischemic insult. […]
# Apoptotic and necrotic cell death were assessed by cell counts following: (1) staining with Live/Death Viability Assay (calcein AM/ethidium homodimer (EthD) (Invitrogen); (2) TUNEL, or, (3) labeling for activated caspase 3. For population studies, dead cells were counted manually within 500×500 μm areas (5 areas per retina) from micrographs of whole-mounts using images acquired by confocal microscope. Nuclear cell counts were made per unit length (500 μm) of frozen retinal cross-sections labeled with propidium iodide (2 μg/ml).
smiles,measurement,setting,value
"CC1(C)[C@@H](O)CC[C@]2(C)[C@H]3C(=O)C=C4[C@@H]5C[C@@](C)(C(=O)O)CC[C@]5(C)CC[C@@]4(C)[C@]3(C)CC[C@@H]12 [18Beta-GA, 18-Beta-glycyrrhetinic acid]","cell viability, blocker alone","control experiments, 18Beta-GA or MFA alone without NMDA, p>0.1",did not affect cell viability
same,cell death in the GCL induced by excitotoxicity,"retinas preincubated in 18Beta-GA 25 μM or MFA 50 μM, then NMDA 100-300 μM 1 h, vs NMDA alone, p<0.001",significantly reduced
